Read-outs that look alike come from different tables or passages of the source.
Assays:
A2780 cells = experiment: Cell Proliferation Assay (Cell Titer Glo), A2780; format: cell-based; details: Homo sapiens, read-out: CPEC50 A2780
Method: IV. Cell Proliferation Assay Protocol:
A2780, PC-3, or PC3MM cells were seeded at 1000 cells/well in 100 μL/well (10.000 cells/mL) growth media in 96-well plates. Cells were allowed to adhere to the bottom of plates for 3-5 hours in a 37° C. 5% CO2 incubator. Compounds were dissolved in DMSO and then transferred to the cell plates. The cells were incubated with the compounds for 3 days in a 37° C. 5% CO2 incubator. The growth medium containing the compounds was then removed from the cells and fresh medium was added, followed by 100 μL of Cell Titer Glo assay reagent (Promega). This mixture was shaken for 1 minute and then incubated without shaking for 10 minutes. Activity determinations for the compounds were made by detection on a Trilux Instrument.

PC-3 cells = experiment: Cell Proliferation Assay (Cell Titer Glo), PC-3 cell line; format: cell-based; details: Homo sapiens, read-out: CPEC50 PC3
Outline: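 Cell Titer Glo luminescence, read after fresh medium replaced the dosing medium, gave viability of PC-3 cells plated at 1000 cells/well. Compounds, 1:3 serially diluted in DMSO at 500× and then in medium, were added after 3-5 h adhesion and incubated 3 days at 37° C.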

PDK1 kinase = biological target: T1, PDK1 kinase (Homo sapiens, UniProt O15530); experiment: PDK1 Kinase Alpha Screen Assay; format: biochemical; details: read-out: PDK1 IC50
T1 sequence (O15530 1-556): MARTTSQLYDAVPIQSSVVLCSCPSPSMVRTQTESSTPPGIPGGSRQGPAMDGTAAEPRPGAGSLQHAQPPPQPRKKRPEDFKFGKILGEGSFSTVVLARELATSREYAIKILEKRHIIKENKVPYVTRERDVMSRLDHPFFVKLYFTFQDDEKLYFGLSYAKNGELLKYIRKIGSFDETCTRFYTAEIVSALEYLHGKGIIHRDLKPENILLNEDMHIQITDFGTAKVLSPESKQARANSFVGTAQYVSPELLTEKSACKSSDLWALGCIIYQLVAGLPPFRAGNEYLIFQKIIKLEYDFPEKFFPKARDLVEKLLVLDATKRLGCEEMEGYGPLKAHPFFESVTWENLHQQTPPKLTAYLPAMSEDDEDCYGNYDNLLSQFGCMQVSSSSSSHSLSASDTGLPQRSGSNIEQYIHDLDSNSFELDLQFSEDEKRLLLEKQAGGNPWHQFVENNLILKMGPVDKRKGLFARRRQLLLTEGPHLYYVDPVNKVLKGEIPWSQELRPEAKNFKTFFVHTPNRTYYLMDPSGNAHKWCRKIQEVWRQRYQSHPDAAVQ
Outline: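 Kinase inhibition measured as loss of AlphaScreen signal from antibody recognition of phosphorylated biotin-PDK1-4 peptide. Reactions contain 10 uM ATP and 50 nM peptide, run 3-18 hours before EDTA quench and overnight bead development at room temperature.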

[1] = Cell Proliferation Assay, A2780
[2] = PC-3, Cell Proliferation Assay, PC3

Compound | EC50 (PC-3 cells; [2]) [µM] | IC50 (PDK1 kinase; PDK1 Kinase Alpha Screen Assay) [µM] | further results
c1cc(OC2CCCC2)c2nc(NC3CC3)ncc2c1 [Compound 728, 8-(cyclopentyloxy)-N-cyclopropylquinazolin-2-amine] |  |  | EC50 (A2780 cells; cell proliferation, A2780 cells): 5 to 10 µM
CC(C)Oc1cccc2cnc(NCc3ccc(S(N)(=O)=O)cc3)nc12 [Compound 558, 4-((8-isopropoxyquinazolin-2-ylamino)methyl)benzenesulfonamide] |  |  | EC50 (A2780 cells; [1]): 5 to 10 µM
CNC(=O)c1cc(Oc2ccc3cnc(Nc4ccc(S(N)(=O)=O)cc4)nc3c2)ccn1 [Compound 563, N-methyl-4-(2-(4-sulfamoylphenylamino)quinazolin-7-yloxy)picolinamide] |  |  | EC50 (A2780 cells; [1]): 5 to 10 µM
Cn1cc(-c2ccc3cnc(Nc4ccc(S(=O)(=O)N5CCOCC5)cc4)nc3c2)cn1 [Compound 317, 7-(1-methyl-1H-pyrazol-4-yl)-N-(4-(morpholinosulfonyl)phenyl)quinazolin-2-amine] |  |  | EC50 (A2780 cells; [1]): < 5 µM
CN1CCN(c2ccc(Nc3ncc4cccc(OC5CCNCC5)c4n3)cc2)CC1 [Compound 548, N-(4-(4-methylpiperazin-1-yl)phenyl)-8-(piperidin-4-yloxy)quinazolin-2-amine] | < 5 | < 5 | 
O=S(=O)(c1cccc(Nc2ncc3c(Br)ccc(OC4CCNCC4)c3n2)c1)N1CCOCC1 [Compound 437, 5-bromo-N-(3-(morpholinosulfonyl)phenyl)-8-(piperidin-4-yloxy)quinazolin-2-amine] | < 5 | 5 to 10 | 
CN1CCC(CNC(=O)c2cncc(-c3cccc4cnc(Nc5ccc(S(N)(=O)=O)cc5)nc34)c2)CC1 [Compound 982, N-((1-methylpiperidin-4-yl)methyl)-5-(2-(4-sulfamoylphenylamino)quinazolin-8-yl)nicotinamide] |  |  | EC50 (PC-3 cells; PC-3, PC3 cells): 5 to 10 µM; IC50 (PDK1 kinase): < 5 µM
NS(=O)(=O)c1ccc(Nc2ncc3cccc(C4=CCNCC4)c3n2)cc1 [Compound 987, 4-(8-(1.2,3,6-tetrahydropyridin-4-yl)quinazolin-2-ylamino)benzenesulfonamide] |  |  | EC50 (PC-3 cells; PC-3, PC3 cells): < 5 µM; IC50 (PDK1 kinase): < 5 µM
CC(C)NCc1cncc(-c2cccc3cnc(Nc4ccc(S(N)(=O)=O)cc4)nc23)c1 [Compound 946, 4-(8-(5-((isopropylamino)methyl)pyridin-3-yl)quinazolin-2-ylamino)benzenesulfonamide] |  |  | EC50 (PC-3 cells; PC-3, PC3 cells): < 5 µM; IC50 (PDK1 kinase): < 5 µM
C#Cc1cc(OC2CCNCC2)c2nc(Nc3ccc(N4CCOCC4)cc3)ncc2c1 [Compound 700, 6-ethynyl-N-(4-morpholinophenyl)-8-(piperidin-4-yloxy)quinazolin-2-amine] | < 5 | < 5 | 
O=C(c1ccc(Nc2ncc3ccc(NC4CCNCC4)cc3n2)cc1)N1CCOCC1 [Compound 347, morpholino(4-(7-(piperidin-4-ylamino)quinazolin-2-ylamino)phenyl)methanone] | < 5 | < 5 | 
Cc1ccc(Nc2ncc3ccc(OC4CCNCC4)cc3n2)cc1NS(C)(=O)=O [Compound 325] | 5 to 10 | < 5 | 
CC(C)N1CCC(Oc2ccc3cnc(Nc4ccc(C(F)(F)F)cc4)nc3c2)CC1 [Compound 318, 7-(1-isopropylpiperidin-4-yloxy)-N-(4-(trifluoromethyl)phenyl)quinazolin-2-amine] | < 5 | < 5 | 
NS(=O)(=O)c1ccc(Nc2ncc3c(-c4cn[nH]c4)ccc(OC4CCNCC4)c3n2)cc1 [Compound 586, 4-(8-(piperidin-4-yloxy)-5-(1H-pyrazol-4-yl)quinazolin-2-ylamino)benzensulfonamide] | 5 to 10 | 5 to 10 | 
CC(C)NC(=O)c1ccc(Nc2ncc3cccc(OC4CCNCC4)c3n2)cc1 [Compound 491, N-isopropyl-4-(8-(piperidin-4-yloxy)quinazolin-2-ylamino)benzamide] | < 5 | < 5 | 
c1cc(-c2ccc(NCCN3CCCC3)nc2)c2nc(Nc3ccc(N4CCOCC4)cc3)ncc2c1 [Compound 996, N-(4-morpholinophenyl)-8-(6-(2-(pyrrolidin-1-yl)ethylamino)pyridin-3-yl)quinazolin-2-amine] |  |  | EC50 (PC-3 cells; PC-3, PC3 cells): < 5 µM; IC50 (PDK1 kinase): < 5 µM

Reference: patent US7932262B2 (Novartis AG, priority 2006, dated 2011)
